The values below come from patent publication US20020183357A1, “Use of alpha- 1- alpha adrenoceptor agonists with alpha-1-Beta antagonism for the treatment of stress urinary incontinence” (priority 2000, published 2002).

Each structure is given as a SMILES string. Where two headings read alike, the source gives them in different places.

For data set [1] the following is noted: for IUP ED5 mmHg: dose producing 5 mmHg increase in IUP; for Selectivity ratio MAP ED20/IUP ED5: calculated for each dog and then averaged.
Description: Intraurethral Pressure in Dogs (IUP-MAP test)
Female Beagle dogs (Marshall Farms, North Rose, N.Y.) greater that 2 years of age and weighing between 12 and 15 kg were used in these studies. At least 2 weeks prior to any agonist dosing, dogs were instrumented for the chronic measurement of arterial blood pressure by implanting a telemetry transducer/transmitter (TA11PA-C40, Data Sciences International, St. Paul, Minn.) into a carotid artery.
On the test day, dogs fasted since the previous afternoon were pre-anesthetized with thiopental sodium 15 mg/kg i.v. (Pentothal™, Abbott) and intubated. Anesthesia was maintained by allowing the dog to spontaneously breathe a mixture of isoflurane (2.5 to 3 volume %) and oxygen delivered by a Narkomed Standard anesthesia system (North American Drager, Telford, Pa.). An Abbocath-T™ i.v. catheter (18-G, Abbott Laboratories, Abbott Park, Ill.) was inserted into the cephalic vein for the administration of agonists. A telemetry receiver (RA1310, DataSciences) was placed under the head of each dog and was interfaced to a computerized data acquisition system (Modular Instruments Inc.(MI2), Malvern, Pa.) which allowed for the continuous calibrated recording of arterial blood pressure which was electronically filtered to determine its mean value (MAP).
Briefly, a 7 Fr catheter balloon catheter (41224-01, Abbott) was inserted into the urethral orifice and advanced approximately 15 cm until the tip was well inside the bladder. The balloon was then inflated with 1 ml of room air and the catheter slowly withdrawn until resistance (corresponding to the bladder neck) was evident. The balloon was then deflated and the catheter withdrawn an additional 2 cm. The balloon was then reinflated and its catheter port connected to a Gould Statham P23Dd pressure transducer interfaced to a computerized data acquisition system (Modular Instruments, Inc., Malvern, Pa.) for the measurement of intraurethral pressure (IUP). The MAP and IUP pressor responses to increasing iv doses of test agonists were obtained simultaneously. The pressor effects of each dose were allowed to return to baseline before the next dose was given.
The dose required to elicit significant and clinically meaningful changes in IUP (5 mm Hg) relative to the dose required to elicit a physiologically significant increase in blood pressure (20 mm Hg) is calculated.
IUP and MAP pressor effects of each agonist dose were expressed as the maximum net change in each pressure over pre-dose baseline levels. Subsequently, the effective doses required to produce a 5 mmHg increase in IUP (IUP ED5mmHg) and a 20 mmHg increase in MAP (MAP ED20mmHg) were estimated from the dose response data from each dog. Relative urethral versus vascular selectivity of each agonist in each dog was estimated using a ratio of these respective potency indices (MAP ED20mmHg/IUP ED5mmHg).
Data are expressed as means (±S.E.M) and all doses are in nmol/kg, i.v.
Data set [2] concerns the target T1, α1A adrenoceptor subtype (rabbit urethra) (Oryctolagus cuniculus, UniProt O02824).
T1 sequence (O02824 1-466): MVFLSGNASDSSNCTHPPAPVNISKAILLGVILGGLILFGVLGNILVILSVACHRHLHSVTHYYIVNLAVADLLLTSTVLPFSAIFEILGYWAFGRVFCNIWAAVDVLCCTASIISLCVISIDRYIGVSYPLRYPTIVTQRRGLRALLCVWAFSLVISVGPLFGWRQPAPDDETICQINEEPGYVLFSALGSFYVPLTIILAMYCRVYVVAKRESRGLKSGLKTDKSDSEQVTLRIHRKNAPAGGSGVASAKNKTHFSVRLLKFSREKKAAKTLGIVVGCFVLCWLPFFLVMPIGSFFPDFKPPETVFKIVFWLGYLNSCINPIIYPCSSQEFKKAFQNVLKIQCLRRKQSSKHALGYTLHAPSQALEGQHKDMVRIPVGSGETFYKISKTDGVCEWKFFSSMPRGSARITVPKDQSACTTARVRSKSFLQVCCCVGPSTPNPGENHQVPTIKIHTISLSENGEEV
In words: Rabbit urethra tissue bath, agonism. The note with it: for α1A efficacy: percent of phenylephrine (100%) contraction. From the text:
(§1) Quantitative analysis of agonist and antagonist action is the basis of receptor classification and drug design. […] The interaction of an agonist with a receptor may be characterized by two quantities, affinity and efficacy. These quantities can be estimated by generating two concentration response curves and fitting the data to a four parameter curve smoothing routine. The first curve is a reference standard followed by a thorough rinsing and a second curve generated using the test agent. […] Agonist potency (pD2) is expressed as the negative log10 of the EC50. The efficacy is determined by comparing the maximum value of the test agent to the maximum value of the reference agent and expressed as a % of maximum response.
(§2) A cumulative concentration protocol was employed. […] Br. J. Pharmacol. 14, 48-58.
The efficacy of the compounds are compared as a percent of phenylephrine (100%) contraction.

Data set [3] deals with T2, α1D adrenoceptor subtype (rat aorta) (Rattus norvegicus, UniProt P23944).
T2 sequence (P23944 1-561): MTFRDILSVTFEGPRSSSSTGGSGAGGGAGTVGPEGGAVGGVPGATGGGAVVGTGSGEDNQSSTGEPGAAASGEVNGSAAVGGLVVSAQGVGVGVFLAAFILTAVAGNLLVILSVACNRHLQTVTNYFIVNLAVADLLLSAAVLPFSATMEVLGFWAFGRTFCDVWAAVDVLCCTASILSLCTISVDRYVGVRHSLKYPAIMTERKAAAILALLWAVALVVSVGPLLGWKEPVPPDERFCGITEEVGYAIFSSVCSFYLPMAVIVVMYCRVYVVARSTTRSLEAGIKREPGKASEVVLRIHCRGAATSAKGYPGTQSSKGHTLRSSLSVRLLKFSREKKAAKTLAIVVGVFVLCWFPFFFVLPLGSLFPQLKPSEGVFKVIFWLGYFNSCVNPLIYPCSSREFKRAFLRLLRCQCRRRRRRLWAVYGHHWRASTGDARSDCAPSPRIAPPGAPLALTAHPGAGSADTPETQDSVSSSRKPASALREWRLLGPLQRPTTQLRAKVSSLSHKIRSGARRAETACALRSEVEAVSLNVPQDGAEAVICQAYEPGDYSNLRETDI
In words: Rat aorta tissue bath, agonism. As to conditions: for α1D efficacy: percent of phenylephrine (100%) contraction.
Description: as §1, §2

Data set [4] concerns the target T3, α1B adrenoceptor subtype (rat spleen) (Rattus norvegicus, UniProt P15823).
T3 sequence (P15823 1-515): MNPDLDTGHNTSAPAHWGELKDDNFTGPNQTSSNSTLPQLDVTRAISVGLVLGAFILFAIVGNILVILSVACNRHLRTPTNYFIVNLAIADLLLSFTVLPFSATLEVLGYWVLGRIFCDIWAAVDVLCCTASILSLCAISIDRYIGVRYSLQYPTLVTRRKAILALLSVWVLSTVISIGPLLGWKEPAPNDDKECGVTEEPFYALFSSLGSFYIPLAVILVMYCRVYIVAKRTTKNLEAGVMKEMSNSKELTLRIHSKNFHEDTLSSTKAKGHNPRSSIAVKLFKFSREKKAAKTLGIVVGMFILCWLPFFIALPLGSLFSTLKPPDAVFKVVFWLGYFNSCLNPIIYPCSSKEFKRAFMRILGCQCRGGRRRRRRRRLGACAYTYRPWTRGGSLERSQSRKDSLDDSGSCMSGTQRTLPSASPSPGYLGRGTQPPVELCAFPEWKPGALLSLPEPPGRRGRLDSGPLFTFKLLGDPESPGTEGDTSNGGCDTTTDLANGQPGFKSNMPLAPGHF
Kind of data set: Rat spleen tissue bath, agonism. Set-up: The spleen was split longitudinally into two preparations per rat; from tissue; host or cells: rat spleen.
Description: as §1, §2
(§3) The spleen was split longitudinally into two preparations per rat.

Data set [5] deals with T2, α1D adrenoceptor subtype (rat aorta).
Description: (§4) The interaction of an antagonist with a receptor can be characterized by an affinity constant, pA2. The affinity unit, pA2, can be defined as negative logarithm to base 10 of the molar concentration of antagonist drug that will reduce the effect of the reference agonist by 50%. […] The fractional increase in agonist concentration required to overcome the effects of the antagonist should be independent of the agonist concentration. Secondly, the affinity of the antagonist should be independent of concentration, therefore the Schild plot should have a slope of unity. Thirdly, the antagonist affinity should be independent of the agonist used.
(§5) The urethra was removed with the urinary bladder and immediately placed into Krebs Ringer bicarbonate solution with the following mM concentrations: 120 NaCl, 18.0 NaHCO3, 11.0 dextrose, 4.7 KCl, 2.5 CaCl2, 1.5 MgSO4, 1.2 KH2PO4 and equilibrated with 5% CO2:95% O2. The pH was adjusted to 7.2 at 25° C. by titrating with a saturated solution of NaHCO3. The pH increased to 7.4 at 37° C. Propranolol (0.004 mM) was included in all of the assays to block β-adrenoceptors. […] One end was fixed to a stationary glass rod and the other to a Grass FT03 transducer at a basal preload of 1.0 g of tension. Data was recorded on a Grass model-7 polygraph. Tissues were rinsed every 10 minutes for a total of 45-60 minutes. The urethra was primed once with 80 mM KCl, rinsed to basal tension and again with 10 μM phenylephrine (PE). After an additional 60 minute equilibration period a reference concentration response curve was generated for each tissue using PE as the reference agonist. A cumulative concentration protocol was employed. Following a 75 minute washout period a second response curve was then generated in the same fashion using the test agent. The amount of agent necessary to cause a 50% response (ED50) was calculated using “AGANTG” (Zielinski, P. J., Buckner, S. A. (1998). AGANTG: A Microsoft Excel 5.0-visual basic routine for the analysis of dose-response data. Analyst. 123, 1661-1668), a four parameter curve fitting program similar to “Allfit” (DeLean, A., Munson, P. J., Rodbard, D. (1980). Simultaneous analysis of families of sigmoidal curves: application to bioassay, radioligand assay, and physiological dose-response curves. Am. J. Physiol. 235, E97-102). Agonist potencies were indexed to PE and expressed as the negative logarithm (pD2). Each tissue was used for only one test agonist. For antagonists, the test agent was allowed a 30 minute exposure time before a second PE curve was started. The potency, expressed as a pA2, was calculated according to the method of Arunlakshana, O., Schild, H. O. (1959), Some quantitative uses of drug antagonists. […] The individual tissues were exposed to only one concentration of the test antagonist. The regression lines of the Schild plots were analyzed using least squares regression (Snedecor, G. W., Cochran, W. G., (1980). In Statistical methods, 7th edition, Iowa State University Press, Ames, Iowa).
(§6) Male Sprague Dawley rats (350-450 g) were sedated with CO2 and decapitated. The entire thoracic aorta was removed and immediately placed into Krebs Ringer bicarbonate solution as described above. The aorta was cleaned of extraneous tissue and the endothelium removed by passing a 100 mm length of PE-160 tubing through the lumen. The aorta was cut into 3-4 mm rings and mounted in 10 ml isolated tissue baths at 37° C.
Data set [6] shares this target. The note with it: for type of antagonism at α1D: based on slope and regression (r) of Schild plot; for α1D r (regression of Schild plot) / α1D slope (Schild plot): rat aorta.
Description: as §4, §5, §6
Data set [7] addresses T3, α1B adrenoceptor subtype (rat spleen). The note with it: for type of antagonism at α1B: based on slope and regression (r) of Schild plot; for α1B r (regression of Schild plot) / α1B slope (Schild plot): rat spleen.
Description: as §2, §3

Data set [8] concerns the target T4, α1d adrenoceptor (rat receptor expressed in mouse fibroblasts) (Rattus norvegicus, UniProt P23944).
T4 construct: expressed in transfected cells; host or cells: mouse fibroblasts
T4 sequence (P23944 1-561): T2 sequence (P23944 1-561)
Kind of data set: Radioligand binding, α1d (rat receptor expressed in mouse fibroblasts), [3H]-prazosin.

Data set [9] concerns the target T5, α1A adrenoceptor (rat submaxillary gland) (Rattus norvegicus, UniProt P43140).
T5 construct: α1A (rat submaxillary gland); from tissue; host or cells: rat submaxillary gland
T5 sequence (P43140 1-466): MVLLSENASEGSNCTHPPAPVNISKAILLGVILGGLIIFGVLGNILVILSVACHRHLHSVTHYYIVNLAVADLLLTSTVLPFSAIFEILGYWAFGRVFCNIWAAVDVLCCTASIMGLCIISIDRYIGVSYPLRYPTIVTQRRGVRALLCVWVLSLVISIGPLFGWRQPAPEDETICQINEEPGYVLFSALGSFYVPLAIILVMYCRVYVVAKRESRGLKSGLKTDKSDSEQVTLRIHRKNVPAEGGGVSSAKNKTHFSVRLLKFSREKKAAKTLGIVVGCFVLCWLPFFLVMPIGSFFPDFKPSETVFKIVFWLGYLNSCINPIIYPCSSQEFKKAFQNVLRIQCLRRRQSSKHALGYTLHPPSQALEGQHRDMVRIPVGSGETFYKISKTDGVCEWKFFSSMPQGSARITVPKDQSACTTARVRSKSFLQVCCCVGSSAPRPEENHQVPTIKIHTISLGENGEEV
In words: Radioligand binding, α1A (rat submaxillary gland), [3H]-prazosin.

The target of data set [10] is T6, α1b adrenoceptor (hamster receptor expressed in mouse fibroblasts) (Mesocricetus auratus, UniProt P18841).
T6 construct: expressed in transfected cells; host or cells: mouse fibroblasts
T6 sequence (P18841 1-515): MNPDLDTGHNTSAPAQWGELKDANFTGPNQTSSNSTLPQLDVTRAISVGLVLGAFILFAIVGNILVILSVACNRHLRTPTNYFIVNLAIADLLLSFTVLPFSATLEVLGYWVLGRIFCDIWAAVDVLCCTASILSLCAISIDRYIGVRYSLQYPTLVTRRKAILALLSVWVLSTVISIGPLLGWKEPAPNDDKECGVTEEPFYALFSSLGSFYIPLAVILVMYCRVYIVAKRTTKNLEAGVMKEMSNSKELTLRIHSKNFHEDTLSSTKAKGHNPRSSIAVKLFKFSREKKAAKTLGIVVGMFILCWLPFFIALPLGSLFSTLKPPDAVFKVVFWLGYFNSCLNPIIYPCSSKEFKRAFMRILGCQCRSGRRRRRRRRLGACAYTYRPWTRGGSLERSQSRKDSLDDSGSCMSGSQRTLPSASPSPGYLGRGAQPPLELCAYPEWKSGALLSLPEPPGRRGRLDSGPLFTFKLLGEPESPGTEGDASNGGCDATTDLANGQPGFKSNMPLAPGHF
In words: Radioligand binding, α1b (hamster receptor expressed in mouse fibroblasts), [3H]-prazosin.

[11] abbreviates: i.v., anesthetized female Beagle dogs, mean ± S.E.M.
Where [12] appears, read: i.v., anesthetized female Beagle dogs, dose producing 20 mmHg increase in MAP, mean ± S.E.M.

Regarding `CS(=O)(=O)Nc1c(O)ccc2c1CCCC2C1=NCCN1` (centres unmarked) [Compound A-61603, reference compound], the “MAP ED20 mmHg” value in data set [1] (female, Beagle, dog, in vivo, iv) stood at 0.27 ± 0.05 nmol/kg. Further, the “IUP ED5 mmHg” value in [1] (setting [11]) was 0.16 ± 0.02 nmol/kg. This molecule gave a α1A efficacy in data set [2] of 88%. The α1D efficacy in data set [3] was 100%.
For the molecule `CCS(=O)(=O)Nc1cccc(Cc2c[nH]cn2)c1C` [Compound A-286569], the “Selectivity ratio MAP ED20/IUP ED5” value in data set [1] was 5.6. In addition, in data set [1] (setting [11]), the “IUP ED5 mmHg” value was determined as 41.9 ± 6.2 nmol/kg. Further, the “MAP ED20 mmHg” value in data set [1] (setting [12]) is 201.6 ± 67 nmol/kg. In addition, the “α1B pD2” value in data set [4] (agonist potency) is “inactive”. In data set [5], the Kb was 6.31 µM. In addition, in data set [6], the “type of antagonism at α1D” value is recorded as “non-competitive antagonist”, the “α1D r (regression of Schild plot)” value amounted to 0.5 and the “α1D slope (Schild plot)” value came out at 1.1. The same molecule registered a α1A efficacy in data set [2] of 69%. Moreover, in data set [7], the Kb is 15.8 µM, the “type of antagonism at α1B” value is “non-competitive antagonist”, the “α1B r (regression of Schild plot)” value was determined as 0.6 and the “α1B slope (Schild plot)” value came out at 1.3. In data set [3] (agonist potency), the “α1D pD2” value is “inactive”.
On to `CCS(=O)(=O)Nc1cccc(Cc2c[nH]cn2)c1` [Compound A-286666], for which, in data set [4] (agonist potency), the “α1B pD2” value is “inactive”. In [5], this molecule gave a Kb of 0.316 µM. Besides, in data set [6], the “type of antagonism at α1D” value is on record as “competitive antagonist”, the “α1D r (regression of Schild plot)” value was found to be 0.9 and the “α1D slope (Schild plot)” value is reported as 0.93. The molecule further displayed a α1A efficacy in [2] of 80%. Further, in data set [7], the Kb was 1.58 µM, the “type of antagonism at α1B” value is listed as “competitive antagonist”, the “α1B r (regression of Schild plot)” value is given as 0.9 and the “α1B slope (Schild plot)” value was 0.81. In addition, the “α1D pD2” value in data set [3] (agonist potency) is “inactive”.
As for `C[C@@H](N)[C@H](O)c1ccccc1` [PPA, phenylpropanolamine], the “Selectivity ratio MAP ED20/IUP ED5” value in data set [1] is reported as 0.4. Besides, in data set [1] (setting [11]), the “IUP ED5 mmHg” value was 1092 ± 384 nmol/kg. Also, the “MAP ED20 mmHg” value in [1] (setting [12]) is 331 ± 80 nmol/kg. Moreover, the EC50 in data set [4] (agonist potency, read-out: α1B pD2 (converted)) is 251 µM; in data set [2] (agonist potency, negative log of EC50, read-out: α1A pD2 (converted)) it was 200 µM; in data set [3] (agonist potency, read-out: α1D pD2 (converted)), 63.1 µM. Besides, the α1B efficacy in [4] (percent of phenylephrine (100%) contraction) was determined as 34%. Besides, the inhibition constant (Ki) in data set [8], in data set [9] and in data set [10] was over 10 µM in each case. Further, in [2], the α1A efficacy stood at 68%. Moreover, in data set [3], the α1D efficacy was determined as 91%.

The Ki is the dissociation constant of the complex between target and ligand, obtained from inhibition or displacement. Low readings indicate higher affinity, high ones lower affinity.
